Source: patent US8828988B2 (Tetraphase Pharmaceuticals, Inc., priority 2009, dated 2014)
Values after ≈ are worked out from the molar mass of the structure shown. Where two headings read alike, the source gives them in different places.

Key:
[1] = test system: E. coli DH10B(pBAD-tetK), expressing tet(K); test: MIC against recombinant E. coli expressing tet(K); assay type: cell-based; conditions: for MIC: Escherichia coli
Excerpt: (§1) Constructs were transformed into E. coli DH10B for expression. Recombinant strains were pre-induced under optimized conditions with L-arabinose prior to use as inocula in CLSI standardized MIC assays.

[2] = test system: Streptococcus pneumoniae SP106, ATCC 49619; test: MIC assay, SP106; assay type: cell-based
[3] = test system: Staphylococcus aureus SA101, ATCC 29213, MSSA; test: MIC assay, SA101; assay type: cell-based
[4] = test system: Enterococcus faecalis EF103, ATCC 29212; test: MIC assay, EF103; assay type: cell-based; conditions: for MIC: Enterococcus faecalis, ATCC29212, Table 8, read-out: MIC E. faecalis ATCC 29212
[5] = test system: Streptococcus pneumoniae SP160, tetracycline-resistant, tet(M); test: MIC assay, SP160; assay type: cell-based
[6] = test system: Enterococcus faecalis EF159, tetracycline-resistant, tet(M); test: MIC assay, EF159; assay type: cell-based
[7] = test system: tet(M) strains of S. aureus; test: MIC, CLSI methodology, recent clinical isolates (Example 21); assay type: cell-based; conditions: Staphylococcus aureus, read-out: MIC against tet(M) strains of S. aureus
Protocol: (§2) The assays were run as follows.
(§3) The antibacterial activities of Compounds MIC values were determined according to CLSI methodology. Recent clinical isolates were obtained from Eurofins-Medinet. Antibiotics were obtained from standard commercial sources.

[8] = test system: tet(M) and tet(S) strains of E. faecalis; test: as above; assay type: cell-based; conditions: Enterococcus faecalis, read-out: MIC against tet(M) and tet(S) strains of E. faecalis
Protocol: as §2, §3

[9] = test system: tet(K) strains of S. aureus; test: as above; assay type: cell-based; conditions: Staphylococcus aureus, read-out: MIC against tet(K) strains of S. aureus
Protocol: as §2, §3

[10] = test system: tet(M) strains of S. pneumoniae; test: as above; assay type: cell-based; conditions: Streptococcus pneumoniae, read-out: MIC against tet(M) strains of S. pneumoniae
Protocol: as §2, §3

[11] = test system: E. coli DH10B(pBAD-tetM), expressing tet(M); test: MIC against recombinant E. coli expressing tet(M); assay type: cell-based; conditions: for MIC: Escherichia coli
Excerpt: as §1

[12] = test system: E. coli S30 extract system, coupled in vitro transcription/translation, firefly luciferase readout; test: In vitro transcription/translation (TnT) assay; assay type: biochemical; conditions: for IC50, in vitro transcription/translation system: E. coli S30 extract, luciferase readout
[13] = test system: Escherichia coli EC155, tetracycline-resistant, tet(A); test: MIC assay, EC155; assay type: cell-based
[14] = test system: E. faecalis clinical isolates; test: MIC50, MIC90 and MIC range, panel of clinical isolates (Example 20); assay type: cell-based; conditions: 24 isolates, in µg/mL
Protocol: as §2
(§4) Both values, as well as the MIC range (the lowest and highest MIC value observed for a collection of organisms), were determined for the isolates listed in Table 3.

[15] = test system: S. aureus clinical isolates; test: as above; assay type: cell-based; conditions: MRSA, 30 isolates; in µg/mL
Protocol: as §2, §4

[16] = test system: S. pneumoniae clinical isolates; test: as above; assay type: cell-based; conditions: 19 isolates, in µg/mL
Protocol: as §2, §4

[17] = test system: Escherichia coli EC107, ATCC 25922; test: MIC assay, EC107; assay type: cell-based
[18] = test system: Staphylococcus aureus SA161, HA-MRSA, tetracycline-resistant, tet(M); test: MIC assay, SA161; assay type: cell-based
[19] = test system: Staphylococcus aureus SA158, tetracycline-resistant tet(K); test: MIC assay, SA158; assay type: cell-based
[20] = test system: S. aureus strains collected from various geographical sources; test: MIC50 and MIC90 analysis (Example 22)
Protocol: (§5) Frozen bacterial strains were thawed and subcultured onto Mueller Hinton Broth (MHB) or other appropriate media (Streptococcus requires blood and Haemophilus requires hemin and NAD). Following incubation overnight, the strains were subcultured onto Mueller Hinton Agar and again incubated overnight. […] Isolated colonies were selected to prepare a starting inoculum equivalent to a 0.5 McFarland standard. […] Antibiotics (stored frozen, thawed and used within 3 hours of thawing) and compounds were further diluted to the desired working concentrations.
(§6) The assays were run as follows. Fifty μL of MHB was added to wells 2-12 of a 96-well plate. One hundred μL of appropriately diluted antibiotic or compound was added to well 1. Fifty μL of antibiotics or compound was removed from well 1 and added to well 2 and the contents of well 2 mixed by pipetting up and down five times. Fifty μL of the mixture in well 2 was removed and added to well 3 and mixed as above. Serial dilutions were continued in the same manner through well 12. Fifty μL was removed from well 12 so that all contained 50 μL. Fifty μL of the working inoculum was then added to all test wells. A growth control well was prepared by adding 50 μL of working inoculum and 50 μL of MHB to an empty well. The plates were then incubated at 37° C. overnight, removed from the incubator and each well was read on a plate reading mirror. The lowest concentration (MIC) of test compound that inhibited the growth of the bacteria was recorded.
(§7) MIC, MIC50 and MIC90 values were determined according to CLSI methodology. S. pneumoniae and H. influenzae isolates were obtained from Eurofins-Medinet and are recent clinical isolates. S. aureus strains were collected from various geographical sources.

[21] = test system: Klebsiella pneumoniae KP153, tetracycline-resistant, tet(A), MDR, ESBL+; test: MIC assay, KP153; assay type: cell-based; conditions: Table 9, read-out: MIC Klebsiella pneum KP153 (tet)A
[22] = test system: Klebsiella pneumoniae KP109, ATCC 13883; test: MIC assay, KP109; assay type: cell-based; conditions: ATCC13883, Table 9, read-out: MIC Klebsiella pneum ATCC 13883
in vivo = conditions: Sprague-Dawley, rat
[23] = test system: S. aureus ATCC 13709 (Smith); test: Mouse systemic infection model, S. aureus septicemia; conditions: survival after 48 hours
[24] = test system: Acinetobacter baumannii AB110, ATCC 19606; test: MIC assay, AB110; assay type: cell-based; conditions: ATCC19606, Table 9, read-out: MIC A.baum AB110
[25] = test system: S. pneumoniae isolates (Eurofins-Medinet, recent clinical isolates); test: MIC50 and MIC90 analysis (Example 22)
Protocol: as §5, §6, §7

E. coli ATCC 25922 = test: Mouse systemic infection model, E. coli septicemia; conditions: survival after 48 hours
[26] = test system: H. influenzae isolates (Eurofins-Medinet, recent clinical isolates); test: MIC50 and MIC90 analysis (Example 22)
[27] = test system: Pseudomonas aeruginosa PA111, ATCC 27853; test: MIC assay, PA111; assay type: cell-based; conditions: ATCC27853, Table 9, read-out: MIC P. aeruginosa ATCC 27853
[28] = test system: Staphylococcus aureus SA100, ATCC 13709, MSSA, Smith strain; test: MIC assay, SA100; assay type: cell-based
[29] = Pharmacokinetic analysis in Sprague-Dawley rats
[30] = test system: Enterobacter cloacae EC108, ATCC 13047; test: MIC assay, EC108; assay type: cell-based; conditions: ATCC13047, Table 9, read-out: MIC Enterobacter cloaceae ATCC 13047
[31] = ATCC49619, Table 8, read-out: MIC S. pneumoniae ATCC 49619
[32] = Table 8, read-out: MIC S. aureus ATCC 29213
[33] = Table 8, read-out: MIC S. pneumoniae tetM
[34] = Table 8, read-out: MIC E. faecalis tetM
[35] = Table 8, read-out: MIC E. coli tetA
[36] = ATCC25922, Table 8, read-out: MIC E. coli ATCC 25922
[37] = Table 8, read-out: MIC S. aureus MRSA, tetM
[38] = Table 8, read-out: MIC S. aureus tetK
[39] = after IV dosing, single dose 1 mg/kg

CN(C)[C@@H]1C(O)=C(C(N)=O)C(=O)[C@@]2(O)C(O)=C3C(=O)c4c(O)c(NCC(C)(C)CN5CCCC5)nc(Cl)c4C[C@H]3C[C@@H]12 [Compound 108]
MIC ([1]; read-out: MIC, TetK Induced): 2 µg/mL
MIC ([1]; read-out: MIC, Uninduced): 4 µg/mL
MIC ratio, TetK induced to uninduced ([1]; ratio of TetK induced to uninduced MIC): 0.5
Effect of expression of (tet)K on activity ([1]; result in words): unaffected
MIC [2, 31]: 0.031 µg/mL (≈ 0.0513 µM)
MIC [3, 32]: 0.25 µg/mL (≈ 0.414 µM)
MIC [4]: 0.5 µg/mL (≈ 0.828 µM)
MIC [5, 33]: 0.25 µg/mL (≈ 0.414 µM)
MIC [6, 34]: 2 µg/mL (≈ 3.31 µM)
MIC [7]: ≤ 8 µg/mL
MIC [8]: ≤ 4 µg/mL
MIC [9]: ≤ 1 µg/mL
MIC [10]: ≤ 0.25 µg/mL
MIC ([11]; read-out: MIC, TetM induced): 2 µg/mL
MIC ([11]; read-out: MIC, Uninduced): 2 µg/mL
Ratio (TetM induced / Uninduced) ([11]; ratio of MICs): 1
Effect of expression of (tet)M on activity ([11]; result in words): minimally affected
TnT IC50 [12]: 0.6 µg/mL
IC50, in vitro transcription/translation system [12]: 0.62 µg/mL (≈ 1.03 µM)
MIC [13, 35]: 8 µg/mL (≈ 13.2 µM)
MIC Range [14]: 0.063-4
MIC Range [15]: 0.5-8
MIC Range [16]: <=0.016-0.13
MIC [17, 36]: 2 µg/mL (≈ 3.31 µM)
MIC [18, 37]: 2 µg/mL (≈ 3.31 µM)
MIC [19, 38]: 0.13 µg/mL (≈ 0.215 µM)

CN(C)c1ncc(O)c2c1C[C@H]1C[C@H]3[C@H](N(C)C)C(O)=C(C(N)=O)C(=O)[C@@]3(O)C(O)=C1C2=O [Compound 109]
MIC Range ([20]; S. aureus (n = 20)): ≦0.016-1 μg/ml
MIC50 ([20]; Staphylococcus aureus): ≤ 0.016 µg/mL
MIC90 ([20]; Staphylococcus aureus): ≤ 0.016 µg/mL
MIC [21]: > 32 µg/mL
MIC [2, 31]: 0.031 µg/mL (≈ 0.0676 µM)
MIC ([2]; ATCC49619, Table 9, read-out: MIC S. pneum ATCC 49619): 0.03 µg/mL (≈ 0.0654 µM)
MIC [3, 32]: 0.031 µg/mL (≈ 0.0676 µM)
MIC ([3]; Table 9, read-out: MIC S. aureus ATCC 29213): 0.03 µg/mL (≈ 0.0654 µM)
MIC [22]: 0.5 µg/mL (≈ 1.09 µM)
MIC [4]: 1 µg/mL (≈ 2.18 µM)
MIC E. faecalis ATCC 29212 ([4]; Table 9): 1 µg/mL (≈ 2.18 µM)
AUC(0-t) (in vivo; iv, 1 mg/kg): 1090 ng·h/mL
Cmax (in vivo; iv, 1 mg/kg): 603 ng/mL
Tmax (in vivo; iv, 1 mg/kg): 0.08 h
half-life (in vivo; iv, 1 mg/kg): 3 h
bioavailability (in vivo; oral, 10 mg/kg): 13%
AUC(0-t) (in vivo; po, 10 mg/kg): 1250 ng·h/mL
Cmax (in vivo; po, 10 mg/kg): 192 ng/mL
Tmax (in vivo; po, 10 mg/kg): 1.4 h
half-life (in vivo; po, 10 mg/kg): 4.51 h
MIC [5, 33]: 8 µg/mL (≈ 17.4 µM)
MIC ([5]; Table 9, read-out: MIC S. pneum SP160 (tet)M): 8 µg/mL (≈ 17.4 µM)
MIC [6, 34]: 32 µg/mL (≈ 69.8 µM)
MIC ([6]; Table 9, read-out: MIC E. faecalis EF159 (tet)M): 32 µg/mL (≈ 69.8 µM)
PD50 in the mouse septicemia model against S. aureus ([23]; CD-1 mice, IP infection, intravenous treatment one hour post-challenge): < 0.3 mg/kg
PD50 ([23]; mouse septicemia, S. aureus ATCC 13709, intravenous treatment one hour post-challenge): <0.30 mg/kg
MIC [24]: 0.5 µg/mL (≈ 1.09 µM)
TnT IC50 [12]: 0.76 µg/mL
IC50, in vitro transcription/translation system [12]: sub-μg/ml
E. coli TnT ([12]; Table 8): 0.9 µg/mL
MIC Range ([25]; S. pneumoniae (n = 20)): ≦0.016-8 μg/ml
MIC50 ([25]; Streptococcus pneumoniae): 2 µg/mL (≈ 4.36 µM)
MIC90 ([25]; Streptococcus pneumoniae): 4 µg/mL (≈ 8.72 µM)
PD50 in the mouse septicemia model against E. coli (E. coli ATCC 25922; CD-1 mice, IP infection, treatment one hour post-challenge): 4.3 mg/kg
PD50 (E. coli ATCC 25922; mouse septicemia, E. coli ATCC 25922, treatment one hour post-challenge): 4.3 mg/kg
MIC [13, 35]: > 32 µg/mL
MIC ([13]; Table 9, read-out: MIC E. coli EC155 (tet)A): > 32 µg/mL
MIC Range ([26]; H. influenzae (n = 12)): 0.063 to 4 µg/mL
MIC50 ([26]; Haemophilus influenzae): 0.5 µg/mL (≈ 1.09 µM)
MIC90 ([26]; Haemophilus influenzae): 2 µg/mL (≈ 4.36 µM)
MIC [27]: 8 µg/mL (≈ 17.4 µM)
MIC ([28]; Table 9, read-out: MIC S. aureus ATCC 13709): 0.13 µg/mL (≈ 0.284 µM)
MIC ([28]; Table 12, read-out: MIC S. aureus ATCC 13709): 0.25 µg/mL (≈ 0.545 µM)
MIC [17, 36]: 0.13 µg/mL (≈ 0.284 µM)
MIC ([17]; ATCC25922, Table 9, read-out: MIC E. coli ATCC 25922): 0.13 µg/mL (≈ 0.284 µM)
MIC ([17]; ATCC25922, Table 12, read-out: MIC E. coli ATCC 25922): 0.13 µg/mL (≈ 0.284 µM)
MIC [18, 37]: 16 µg/mL (≈ 34.9 µM)
MIC ([18]; Table 9, read-out: MIC MRSA (tet)M SA161): 32 µg/mL (≈ 69.8 µM)
Clobs ([29]; IV, single dose 1 mg/kg, mean): 15.311 mL/min/kg
Vzobs ([29]; IV, single dose 1 mg/kg, mean): 4.17697 L/kg
half-life ([29]; IV, single dose 1 mg/kg, mean): 3.14 h
AUC [29, 39]: 1087 ng·h/mL
Cl [29, 39]: 15.3 mL/min/kg
Vz [29, 39]: 4.177 L/kg
% F. ([29]; oral bioavailability, PO 10 mg/kg vs IV 1 mg/kg): 12.74%
MIC [30]: 1 µg/mL (≈ 2.18 µM)
MIC [19, 38]: 2 µg/mL (≈ 4.36 µM)
MIC ([19]; Table 9, read-out: MIC S. aureus SA158 (tet)K): 1 µg/mL (≈ 2.18 µM)
